Consider nine molecules from PubChem BioAssay (NCI).

Test systems include RXF 393 renal; SNB-75 CNS; MCF7 breast; NCI/ADR-RES ovarian; NCI-H460 lung; K-562 leukemia; T-47D breast; SK-MEL-5 melanoma; EKVX NSCLC; SR leukemia.
Assay in all cases: DTP human tumour cell line panel, 48 h

Several values for one entry are separate records, joined by “and”; a condition that tells them apart may be missing. Identical values can stand only once.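 Exposure lasted 48 hours, with cells grown in 96-well plates and compounds tested at five concentrations. Here, GI50 denotes the concentration required for 50% inhibition of growth. TGI is the concentration that stops growth completely.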

Consider `Cc1cn2c(=O)n(c1=O)Cc1ccccc1C2`, for which the GI50 (as a rule, the concentration that inhibits growth by half) was 19.5 µM in the experiment on RXF 393 renal; 85.9 µM with SNB-75 CNS; 35.1 µM in the experiment on MCF7 breast; > 100 µM in the experiment on NCI/ADR-RES ovarian; > 100 µM with NCI-H460 lung; > 100 µM with K-562 leukemia. Further, the 50% growth inhibitory concentration (GI50) with T-47D breast is 0.182 µM; with SK-MEL-5 melanoma, 83.1 µM; in the experiment on EKVX NSCLC, > 100 µM. The TGI in the experiment on RXF 393 renal, in the experiment with SNB-75 CNS, with MCF7 breast, in the experiment with NCI/ADR-RES ovarian, in the experiment on NCI-H460 lung and in the experiment on K-562 leukemia was > 100 µM in each case. The TGI (commonly the concentration at which net growth stops) in the experiment on T-47D breast was 10.8 µM; with SK-MEL-5 melanoma, > 100 µM; in the experiment on EKVX NSCLC, > 100 µM.
Regarding `Cc1ccc(Oc2nc3ccccc3cc2-c2nnc(Cn3c(COc4ccccc4)nc4ccccc43)o2)cc1`, the GI50 with RXF 393 renal is 2.71 µM; in the experiment with SNB-75 CNS, 2.16 µM; with MCF7 breast, 0.949 µM; with NCI/ADR-RES ovarian, 2.84 µM; with NCI-H460 lung, 10.4 µM; with K-562 leukemia, 2.59 µM. Moreover, the results for the GI50 in the experiment with T-47D breast, with SR leukemia and in the experiment on SK-MEL-5 melanoma were 2.61 µM, 0.734 µM and 1.9 µM, respectively. Further, the TGI with RXF 393 renal is 10.6 µM; in the experiment with SNB-75 CNS it was 9.74 µM; with MCF7 breast it was 5.38 µM; in the experiment with NCI/ADR-RES ovarian, 10.9 µM; in the experiment with NCI-H460 lung, 24.4 µM; in the experiment on K-562 leukemia, > 100 µM. Further, the TGI with T-47D breast worked out at 14.6 µM; in the experiment with SR leukemia, 8.53 µM; in the experiment with SK-MEL-5 melanoma it was 3.97 µM.
As for `COc1cc2c3c(n(CCCNCCNCCCN)c(=O)c2cc1OC)-c1cc2c(cc1C3=O)OCO2`, the GI50 was 13 µM in the experiment with RXF 393 renal; 10.3 µM in the experiment with SNB-75 CNS; 2.14 µM in the experiment on MCF7 breast; 21.1 µM in the experiment on NCI/ADR-RES ovarian; 6.41 µM with NCI-H460 lung; 3.43 µM in the experiment on K-562 leukemia. Further, the GI50 was 2.72 µM in the experiment with T-47D breast, 6.41 µM with SK-MEL-5 melanoma and 29.8 µM with EKVX NSCLC. Also, the TGI in the experiment on RXF 393 renal is 93.1 µM; in the experiment with SNB-75 CNS, 26.7 µM; in the experiment on MCF7 breast, > 100 µM; in the experiment on NCI/ADR-RES ovarian, 94.6 µM; with NCI-H460 lung it was > 100 µM; with K-562 leukemia, > 100 µM. For the same molecule, the TGI in the experiment on T-47D breast amounted to 17.3 µM; in the experiment on SK-MEL-5 melanoma, 20.3 µM; with EKVX NSCLC, 69.9 µM.
Consider `COc1ccc(/C=C\c2cc(OC)c(OC)c(OC)c2)cc1OCC(=O)Nc1nc2ccc(OC(F)(F)F)cc2s1`, for which the GI50 is 1.56 µM in the experiment with SNB-75 CNS; 2.89 µM with MCF7 breast; 2.7 µM in the experiment on NCI/ADR-RES ovarian; 4.11 µM in the experiment on NCI-H460 lung; 3.43 µM in the experiment with K-562 leukemia; 3.95 µM in the experiment with T-47D breast. Further, the figures for the GI50 in the experiment with SR leukemia, with SK-MEL-5 melanoma and in the experiment with EKVX NSCLC were 3.55 µM, 3.26 µM and 7.89 µM, respectively. For the same molecule, the TGI in the experiment on SNB-75 CNS was 7.68 µM; in the experiment with MCF7 breast it was > 100 µM; with NCI/ADR-RES ovarian it was 8.62 µM; in the experiment with NCI-H460 lung, > 100 µM; in the experiment on K-562 leukemia, > 100 µM; in the experiment with T-47D breast, > 100 µM. The values for the TGI in the experiment on SR leukemia, in the experiment on SK-MEL-5 melanoma and in the experiment on EKVX NSCLC were > 100 µM, 22.9 µM and > 100 µM, respectively.
Take `Cc1ccc(F)cc1NC(=O)c1cc(Cl)ccc1Nc1ccccc1`: the GI50 is 74.7 µM in the experiment with RXF 393 renal; 22.7 µM with SNB-75 CNS; > 100 µM in the experiment on MCF7 breast; > 100 µM in the experiment with NCI/ADR-RES ovarian; > 100 µM in the experiment on NCI-H460 lung; 67.6 µM with K-562 leukemia. Also, the GI50 in the experiment on T-47D breast, with SR leukemia and with SK-MEL-5 melanoma was > 100 µM in each case. For the same molecule, the TGI with RXF 393 renal, with SNB-75 CNS, in the experiment with MCF7 breast, in the experiment on NCI/ADR-RES ovarian, in the experiment with NCI-H460 lung and in the experiment with K-562 leukemia was > 100 µM throughout. Moreover, the TGI with T-47D breast, in the experiment with SR leukemia and with SK-MEL-5 melanoma was > 100 µM in each case.
In the case of `CCCCCCCCCCCCCCCCn1cc[n+](Cc2ccccc2)c1C`, the GI50 in the experiment with RXF 393 renal is 0.0122 µM; in the experiment with SNB-75 CNS, 0.262 µM; in the experiment with MCF7 breast, 1.12 µM and 0.289 µM; with NCI/ADR-RES ovarian it was 8.02 µM and 1.55 µM; in the experiment with NCI-H460 lung, 0.479 µM; in the experiment on T-47D breast it was 0.207 µM. For the same molecule, the GI50 with EKVX NSCLC was 0.703 µM. The TGI with RXF 393 renal is 0.341 µM; in the experiment with SNB-75 CNS, 0.899 µM; in the experiment with MCF7 breast it was 2.39 µM and 0.968 µM; in the experiment with NCI/ADR-RES ovarian, 48.6 µM and 7.01 µM; in the experiment with NCI-H460 lung, 1.8 µM; with T-47D breast, 0.951 µM. The molecule also registered a TGI in the experiment with EKVX NSCLC of 2.28 µM.
`O=C(NC1(C(=O)O)CC1c1ccccc1)c1ccccc1` (centres undefined): the TGI in the experiment on RXF 393 renal, in the experiment on SNB-75 CNS, in the experiment with MCF7 breast, with NCI/ADR-RES ovarian, in the experiment with NCI-H460 lung and with K-562 leukemia was > 100 µM each time. In addition, the TGI in the experiment on T-47D breast, in the experiment with SR leukemia and with EKVX NSCLC was > 100 µM in each case.
For `COC(=O)[C@@H]1CCCN1C(=O)[C@H]1CCCN1C(=O)[C@@H](Cc1c[nH]c2ccccc12)NC(=S)Nc1cc(C(F)(F)F)cc(C(F)(F)F)c1`, the GI50 is 2.18 µM in the experiment on RXF 393 renal; 1.4 µM in the experiment on SNB-75 CNS; 2.11 µM in the experiment with MCF7 breast; 3.96 µM in the experiment with NCI/ADR-RES ovarian; 2.01 µM in the experiment with NCI-H460 lung; 3.73 µM in the experiment with K-562 leukemia. Moreover, the values for the GI50 in the experiment with T-47D breast, in the experiment on SR leukemia and in the experiment on SK-MEL-5 melanoma were 2.44 µM, 2.48 µM and 2.45 µM, respectively. The TGI in the experiment on RXF 393 renal was found to be 7.08 µM; in the experiment on SNB-75 CNS it was 6.75 µM; in the experiment on MCF7 breast, 5.37 µM; in the experiment on NCI/ADR-RES ovarian, 21.4 µM; in the experiment with NCI-H460 lung it was 4.26 µM; with K-562 leukemia, 12.2 µM. Also, the TGI with T-47D breast is 7.53 µM; in the experiment on SR leukemia it was 6.3 µM; in the experiment on SK-MEL-5 melanoma it was 7.11 µM.
With `CN(C)CCNC(=O)c1nc([N+](=O)[O-])cn1C`, the concentration for total growth inhibition (TGI) in the experiment with SNB-75 CNS, in the experiment with MCF7 breast, in the experiment with NCI/ADR-RES ovarian, in the experiment on NCI-H460 lung, in the experiment with K-562 leukemia and in the experiment on T-47D breast was > 100 µM each time. In addition, the TGI with SR leukemia and in the experiment on SK-MEL-5 melanoma was > 100 µM in each case.
